The test has as its target T1, NK1 -receptor (substance P-receptor) (Homo sapiens, UniProt P25103).
T1 construct: intact human lymphoblastoma cells (IM-9) which express NK1 -receptors; endogenous in cells; host or cells: IM-9 human lymphoblastoma cells
The experiment in a line: NK1-receptor affinity: displacement of 125I labelled substance P on intact human lymphoblastoma cells (IM-9). Format: binding. The conditions noted are these: intact human lymphoblastoma cells (IM-9) expressing NK1-receptors. As for the experimental part: The receptor affinity for the NK1 -receptor (substance P-receptor) was determined on intact human lymphoblastoma cells (IM-9) which express NK1 -receptors, and the displacement of ^125 I labelled substance P was measured.

pKi: −log10 of the molar value. Read-outs that look alike come from different tables or passages of the source.

T1 sequence (P25103 whole entry): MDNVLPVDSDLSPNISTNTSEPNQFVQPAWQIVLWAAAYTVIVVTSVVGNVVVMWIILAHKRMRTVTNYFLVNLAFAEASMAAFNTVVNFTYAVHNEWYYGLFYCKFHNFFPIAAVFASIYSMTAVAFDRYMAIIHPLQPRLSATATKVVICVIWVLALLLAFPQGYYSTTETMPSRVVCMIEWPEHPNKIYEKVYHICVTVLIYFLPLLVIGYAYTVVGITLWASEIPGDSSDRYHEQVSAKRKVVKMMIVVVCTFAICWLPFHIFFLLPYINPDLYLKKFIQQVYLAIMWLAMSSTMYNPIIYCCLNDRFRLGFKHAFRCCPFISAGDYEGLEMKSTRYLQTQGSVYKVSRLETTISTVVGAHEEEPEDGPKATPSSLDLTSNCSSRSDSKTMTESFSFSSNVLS

Consider `COc1ccccc1C(CNCc1cc(C(F)(F)F)cc(C(F)(F)F)c1)N1CCCC(c2ccccc2)C1` (single isomer, unassigned) [Example 86, 3,5-Bistrifluoromethylbenzyl-[2-(2-methoxyphenyl)-2-(3-phenylpiperidine-1-yl)-ethyl]-amine], for which the pKi (read-out: Ki) is 6.43.

Turning to `COc1ccccc1C(CNCc1cc(C(F)(F)F)cc(C(F)(F)F)c1)N1CCN(c2ccccc2)CC1` (stereo not drawn) [Example 1, 3,5-Bistrifluoromethylbenzyl-[2-(2-methoxyphenyl)-2-(4-phenylpiperazine-1-yl)-ethyl]-amine], the negative logarithm of the Ki (pKi) (read-out: Ki) is 6.48.

Take `COc1ccccc1C(CN(Cc1cc(C(F)(F)F)cc(C(F)(F)F)c1)C(C)=O)N1CCN(c2ccccc2)CC1` (stereo not drawn) [Example 2, N-3,5-Bistrifluoromethylbenzyl-N-[2-(2-methoxyphenyl)-2-(4-phenylpiperazine-1-yl)-ethyl]-acetamide]: under “read-out: Ki”, the pKi is 6.04.

For the molecule `FC(F)(F)c1cc(CNCC(c2ccccc2)N2CCN(c3ccccc3)CC2)cc(C(F)(F)F)c1` (stereo not drawn) [Example 3, 3,5-Bistrifluoromethylbenzyl-[2-phenyl-2-(4-phenylpiperazine-1-yl)-ethyl]-amine], the pKi (read-out: Ki) is 6.10.

Turning to `COc1ccccc1C(CNCc1cc(C(F)(F)F)cc(C(F)(F)F)c1)N1CCN(c2ccccc2C)CC1` (stereo not drawn) [Example 19, 3,5-Bistrifluoromethylbenzyl-[2-(2-methoxyphenyl)-2-(4-(2-methylphenyl)-piperazine-1-yl)-ethyl]-amine], the negative-log Ki (pKi) (read-out: Ki) was 6.24.

Take `COc1ccccc1C(CNCc1cc(C(F)(F)F)cc(C(F)(F)F)c1)N1CCN(c2cccc(C)c2C)CC1` (stereo not drawn) [Example 20, 3,5-Bistrifluoromethylbenzyl-[2-(2-methoxyphenyl)-2-(4-(2,3-dimethylphenyl)-piperazine-1-yl)-ethyl]-amine]: the pKi (read-out: Ki) was 6.28.

For `COc1ccccc1C(CNCc1cc(C(F)(F)F)cc(C(F)(F)F)c1)N1CCN(Cc2ccccc2)CC1` (stereo not drawn) [Example 22, 3,5-Bistrifluoromethylbenzyl-[2-(2-methoxyphenyl)-2-(4-benzylpiperazine-1-yl)-ethyl]-amine], the negative-log Ki (pKi) (read-out: Ki) was 6.81.

As to `COc1ccccc1C(CNCc1cc(C(F)(F)F)cc(C(F)(F)F)c1)N1CCN(C(C)c2ccccc2)CC1` (stereo not drawn) [Example 23, 3,5-Bistrifluoromethylbenzyl-[2-(2-methoxyphenyl)-2-(4-(1-phenylethyl)-piperazine-1-yl)-ethyl]-amine], the pKi (read-out: Ki) is 6.97.

Regarding `COc1ccccc1C(CNCc1cc(C(F)(F)F)cc(C(F)(F)F)c1)N1CCN(CCc2ccccc2)CC1` (stereo not drawn) [Example 26, 3,5-Bistrifluoromethylbenzyl-[2-(2-methoxyphenyl)-2-(4-(2-phenylethyl)-piperazine-1-yl)-ethyl]-amine], the pKi (read-out: Ki) was 8.15.

Take `COc1ccccc1C(CNCc1cc(C(F)(F)F)cc(C(F)(F)F)c1)N1CCN(Cc2ccc3c(c2)OCO3)CC1` (stereo not drawn) [Example 27, 3,5-Bistrifluoromethylbenzyl-[2-(2-methoxyphenyl)-2-(4-(3,4-methylenedioxybenzyl)-piperazine-1-yl)-ethyl]-amine]: the negative logarithm of the Ki (pKi) (read-out: Ki) is 6.95.

`COc1ccccc1C(CNCc1cc(C(F)(F)F)cc(C(F)(F)F)c1)N1CCN(c2ccccn2)CC1` (stereo not drawn) [Example 28, 3,5-Bistrifluoromethylbenzyl-[2-(2-methoxyphenyl)-2-(4-(2-pyridyl)-piperazine-1-yl)-ethyl]-amine]: the pKi (read-out: Ki) is 6.99.

As for `COc1ccccc1C(CNCc1cc(C(F)(F)F)cc(C(F)(F)F)c1)N1CCN(c2ccc3ccccc3n2)CC1` (stereo not drawn) [Example 29, 3,5-Bistrifluoromethylbenzyl-[2-(2-methoxyphenyl)-2-(4-(2-quinolinyl)-piperazine-1-yl)-ethyl]-amine], under “read-out: Ki”, the negative logarithm of the Ki (pKi) was 6.92.

Consider `CN1CCN(C(CNCc2cc(C(F)(F)F)cc(C(F)(F)F)c2)c2ccccc2)CC1` (stereo not drawn) [Example 30, 3,5-Bistrifluoromethylbenzyl-[2-phenyl-2-(4-methylperazine-1-yl)-ethyl]-amine], for which, where the note is “read-out: Ki”, the pKi is 7.05.

As to `COc1ccccc1C(CNCc1cc(C(F)(F)F)cc(C(F)(F)F)c1)N1CCN(C)CC1` (stereo not drawn) [Example 31, 3,5-Bistrifluoromethylbenzyl-[2-(2-methoxyphenyl)-2-(4-methylpiperazine-1-yl)-ethyl]-amine], the pKi (read-out: Ki) was 7.03.

In the case of `CCCN1CCN(C(CNCc2cc(C(F)(F)F)cc(C(F)(F)F)c2)c2ccccc2OC)CC1` (stereo not drawn) [Example 32, 3,5-Bistrifluoromethylbenzyl-[2-(2-methoxyphenyl)-2-(4-(1-propyl)-piperazine-1-yl)-ethyl]-amine], under “read-out: Ki”, the pKi was 7.64.

On to `COc1ccccc1C(CNCc1cc(C(F)(F)F)cc(C(F)(F)F)c1)N1CCN(C(C)C)CC1` (stereo not drawn) [Example 34, 3,5-Bistrifluoromethylbenzyl-[2-(2-methoxyphenyl)-2-(4-(2-propyl)-piperazine-1-yl)-ethyl]-amine], for which the pKi (read-out: Ki) is 7.42.

Turning to `COc1ccccc1C(CNCc1cc(C(F)(F)F)cc(C(F)(F)F)c1)N1CCN(C2CCCC2)CC1` (stereo not drawn) [Example 35, 3,5-Bistrifluoromethylbenzyl-[2-(2-methoxyphenyl)-2-(4-cyclopentylpiperazine-1-yl)-ethyl]-amine], for the setting “read-out: Ki”, the pKi is 7.80.

In the case of `FC(F)(F)c1cc(CNCC(c2ccccc2)N2CCN(C3CCCCC3)CC2)cc(C(F)(F)F)c1` (stereo not drawn) [Example 36, 3,5-Bistrifluoromethylbenzyl-[2-phenyl-2-(4-cyclohexylpiperazine-1-yl)-ethyl]-amine], the pKi (read-out: Ki) is 7.74.

As for `COc1ccccc1C(CNCc1cc(C(F)(F)F)cc(C(F)(F)F)c1)N1CCN(C2CCCCC2)CC1` (stereo not drawn) [Example 39, 3,5-Bistrifluoromethylbenzyl-[2-(2-methoxyphenyl)-2-(4-cyclohexylpiperazine-1-yl)-ethyl]-amine], the pKi (read-out: Ki) is 7.80.

As to `FC(F)(F)c1cc(CNCC(c2ccc(Cl)c(Cl)c2)N2CCN(C3CCCCC3)CC2)cc(C(F)(F)F)c1` (stereo not drawn) [Example 49, 3,5-Bistrifluoromethylbenzyl-[2-(3,4-dichlorophenyl)-2-(4-cyclohexylpiperazine-1-yl]-ethyl]-amine], the pKi (read-out: Ki) was 7.43.

On to `COc1ccccc1C(CNCc1cc(C(F)(F)F)cc(C(F)(F)F)c1)N1CCN(C2CCCCCC2)CC1` (stereo not drawn) [Example 53, 3,5-Bistrifluoromethylbenzyl-[2-(2-methoxyphenyl)-2-(4-cycloheptylpiperazine-1-yl)-ethyl]-amine], for which the negative logarithm of the Ki (pKi) (read-out: Ki) is 8.30.

As to `COc1ccccc1C(CNCc1cc(C(F)(F)F)cc(C(F)(F)F)c1)N1CCN(CCC2CCCCC2)CC1` (stereo not drawn) [Example 54, 3,5-Bistrifluoromethylbenzyl-[2-(2-methoxyphenyl)-2-(4-(2-cyclohexylethyl)-piperazine-1-yl)-ethyl]-amine], for the setting “read-out: Ki”, the pKi was 7.70.

For the molecule `COc1ccccc1C(CNCc1cc(C(F)(F)F)cc(C(F)(F)F)c1)N1CCN(CCO)CC1` (stereo not drawn) [Example 57, 3,5-Bistrifluoromethylbenzyl-[2-(2-methoxyphenyl)-2-(4-(2-hydroxyethyl)-piperazine-1-yl)-ethyl]-amine], the pKi (read-out: Ki) is 7.19.

Regarding `COc1ccccc1C(CNC(=O)c1cc(C(F)(F)F)cc(C(F)(F)F)c1)N1CCN(C2CCCCC2)CC1` (stereo not drawn) [Example 58, N-[2-(2-Methoxyphenyl)-2-(4-cyclohexylpiperazine-1-yl)-ethyl]-3,5-bistrifluoromethylbenzamide], the pKi (read-out: Ki) is 7.64.

Consider `COc1ccccc1C(CNC(=O)Cc1ccc(Cl)cc1)N1CCN(C2CCCCC2)CC1` (stereo not drawn) [Example 61, N-[2-(2-Methoxyphenyl)-2-(4-cyclohexylpiperazine-1-yl)-ethyl]-2-(4-chlorophenyl)-acetamide], for which, under “Ki”, the pKi is 6.07.

`COc1ccccc1C(CNC(=O)Cc1ccc(Cl)c(Cl)c1)N1CCN(C2CCCCC2)CC1` (stereo not drawn) [Example 62, N-[2-(2-Methoxyphenyl)-2-(4-cyclohexylpiperazine-1-yl)-ethyl]-2-(3,4-dichlorophenyl)-acetamide]: under “read-out: Ki”, the pKi is 6.56.

In the case of `COc1ccccc1C(CNC(=O)Cc1ccccc1C(F)(F)F)N1CCN(C2CCCCC2)CC1` (stereo not drawn) [Example 64, N-[2-(2-Methoxyphenyl)-2-(4-cyclohexylpiperazine-1-yl)-ethyl]-2-(2-trifluoromethylphenyl)-acetamide], the pKi (read-out: Ki) is 6.56.

Regarding `COc1ccccc1C(CNCCc1cc(C(F)(F)F)cc(C(F)(F)F)c1)N1CCN(C2CCCCC2)CC1` (stereo not drawn) [Example 66, 2-(3,5-Bistrifluoromethylphenyl)-2'-(2-methoxyphenyl)-2'-(4-cyclohexylpiperazine-1-yl)-diethylamine], under “read-out: Ki”, the pKi is 7.64.

As for `COc1ccccc1C(CNC(=O)c1cc(C(F)(F)F)cc(C(F)(F)F)c1)N1CCN(C2CCCCC2)CC1` (stereo not drawn) [Example 67, N-[2-(2-Methoxyphenyl)-2-(4-cyclohexylpiperazine-1-yl)-ethyl]-3,5-bistrifluoromethylbenzamide], the pKi (read-out: Ki) was 7.85.

Regarding `COc1ccccc1C(CNC(=O)Cc1cc(C(F)(F)F)cc(C(F)(F)F)c1)N1CCN(C2CCCCCC2)CC1` (stereo not drawn) [Example 68, N-[2-(2-Methoxyphenyl)-2-(4-cycloheptylpiperazine-1-yl)-ethyl]-2-(3,5-bistrifluoromethyl-phenyl)-acetamide], for the setting “read-out: Ki”, the pKi was 8.52.

`COc1ccccc1C(CNCCc1cc(C(F)(F)F)cc(C(F)(F)F)c1)N1CCN(C2CCCCCC2)CC1` (stereo not drawn) [Example 69, 2-(3,5-Bistrifluoromethylphenyl)-2'-(2-methoxyphenyl)-2'-(4-cycloheptylpiperazine-1-yl)-diethylamine]: for the setting “read-out: Ki”, the pKi was 7.80.

As to `COc1ccccc1C(CNC(=O)c1cc(C(F)(F)F)cc(C(F)(F)F)c1)N1CCCCC1` (stereo not drawn) [Example 75, N-[2-(2-Methoxyphenyl)-2-piperidin-1-yl-ethyl]-3,5-bistrifluoromethylbenzamide], for the setting “read-out: Ki”, the pKi is 6.15.

For the molecule `COc1ccccc1C(CNC(=O)Cc1cc(C(F)(F)F)cc(C(F)(F)F)c1)N1CCCCC1` (stereo not drawn) [Example 78, N-[2-(2-Methoxyphenyl)-2-piperidin-1-yl-ethyl]-2-(3,5-bistrifluoromethylphenyl)acetamide], for the setting “read-out: Ki”, the pKi is 6.60.

The record behind these values is US6191135A, “Neurokinin antagonists” (Boehringer Ingelheim KG, priority 1994, dated 2001).
